Assay results published in patent publication US10525054B2 (dated 2020).
Where two headings read alike, the source gives them in different places.

Tests used:
cocaine-trained rats [1] = details: cited from earlier work
squirrel monkeys = details: cited from earlier work
[2] = tested on: acetic acid induced writhing in mice; test: Acetic acid writhing assay in mice; type: in vivo; details: for Mean Number of writhes: in combination with Diclofenac (3 mg/kg), 30 minutes prior to i.p. 0.5% acetic acid, counted 0-20 minutes
cocaine-trained rats [3] = details: doses of up to 3.2 mg/kg/injection; three-day substitution tests and progressive ratio tests; cited from earlier work

## COc1ccc2c3c1O[C@H]1C(=O)CC[C@H]4[C@@H](C2)N(C)CC[C@]314 [hydrocodone]
cocaine-trained rats [1]; 0.18 mg/kg/infusion
  progressive ratio breakpoint: 114

## COc1ccc2c3c1O[C@H]1C(=O)CC[C@@]4(O)[C@@H](C2)N(C)CC[C@]314 [oxycodone]
cocaine-trained rats [1]; 0.01 mg/kg/infusion
  mean progressive ratio breakpoint: 56
cocaine-trained rats [1]; 0.032 mg/kg/infusion
  mean progressive ratio breakpoint: 79
Squirrel monkeys; 0.1 mg/kg/injection IV
  injection lever responses (% ILR): 100%

## COC(=O)[C@H]1[C@@H](OC(=O)c2ccccc2)C[C@@H]2CC[C@H]1N2C [cocaine]
cocaine-trained rats [1]; maintenance dose 0.56 mg/kg/infusion
  progressive ratio breakpoint: 128 responses

## COCCOCCOCCOCCO[C@H]1CC[C@@]2(O)[C@H]3Cc4ccc(OC)c5c4[C@@]2(CCN3C)[C@H]1O5 [α-6-mPEG4-O-hydroxycodone]
[2]; dose 5 mg/kg oral
  Mean Number of writhes: 13
[2]; dose 10 mg/kg oral
  Mean Number of writhes: 4.8

## COCCOCCOCCOCCOCCOCCO[C@H]1CC[C@@]2(O)[C@H]3Cc4ccc(OC)c5c4[C@@]2(CCN3C)[C@H]1O5 [α-6-mPEG6-O-hydroxycodone]
cocaine-trained rats [1]; behaved like saline
  reinforcing properties in progressive ratio tests: no reinforcing properties
cocaine-trained rats [1]; five out of six tested doses
  progressive ratio breakpoints compared with saline: lower than that produced by saline
cocaine-trained rats [3]
  behavioral evidence of positive reinforcement: no behavioral evidence of positive reinforcement
[2]; dose 5 mg/kg oral
  Mean Number of writhes: 6.2
[2]; dose 10 mg/kg oral
  Mean Number of writhes: 4
Squirrel monkeys; 0.32 mg/kg IV
  injection lever responses (% ILR): 22%
Squirrel monkeys; 1.0 mg/kg IV
  injection lever responses (% ILR): 39%
Squirrel monkeys; 3.2 mg/kg IV
  injection lever responses (% ILR): 50%
Squirrel monkeys; highest dose tested, 3.2 mg/kg/injection, 3-4 subjects
  exclusive injection lever responding, number of subjects: only two subjects
Squirrel monkeys; highest doses tested of 3.2 mg/kg/injection
  reinforcing strength: marked reduction in reinforcing strength
Squirrel monkeys; monkeys
  potency in self-administration relative to oxycodone and morphine: significantly lower potency than oxycodone and morphine

## COCCOCCOCCOCCOCCO[C@H]1CC[C@@]2(O)[C@H]3Cc4ccc(OC)c5c4[C@@]2(CCN3C)[C@H]1O5 [α-6-mPEG5-O-hydroxycodone]
[2]; combination with diclofenac (3 mg/kg)
  reduction of writhings, combination versus each compound individually (FIG. 2): measured reduction of writhings that is greater than the number of writhings when each compound is individually administered
[2]; dose 5 mg/kg oral
  Mean Number of writhes: 7.2
[2]; dose 10 mg/kg oral
  Mean Number of writhes: 1.4

## CN1CC[C@]23c4c5ccc(O)c4O[C@H]2[C@@H](O)C=C[C@H]3[C@H]1C5 [morphine, reference compound]
Squirrel monkeys; 0.03 mg/kg/injection IV
  injection lever responses (% ILR): 100%
